Laboratory results taken from paper PMC4854934, “Rapid Screening of Antimicrobial Synthetic Peptides” (International Journal of Peptide Research and Therapeutics, 2015).
Values after ≈ are worked out from the molar mass of the structure shown. “Also recorded” adds a separate entry of the source. Where a name gives a salt, the structure may show the parent alone. Read-outs that look alike come from different tables or passages of the source. Where a SMILES comes first, the peptide text is derived from it. Bridges are numbered along the chain shown (N, C = ends). Roman numbers before positions name the chains, in order. Where no end group is shown, it is not given here. The star is where a group is joined. Palmitoyl = CCCCCCCCCCCCCCCC(=O)*; Myristoyl = CCCCCCCCCCCCCC(=O)*; Lauroyl = CCCCCCCCCCCC(=O)*

How the values were obtained:
Format in all cases: cell-based
[1] = test system: all microorganisms tested; experiment: TLC direct bioautography (TLC-DB) with resazurin; details: crude peptide, bacteria 37 °C 5 h, fungi 27 °C 7 h, resazurin 4 mg/mL (0.1 % Triton X-100); for TLC-DB without separation: appearance of spot after resazurin: 10 µL of 5 mg/mL applied directly on TLC plate, no development; for TLC-DB with separation: zones after resazurin: 4 µL of 5 mg/mL, n-butanol/acetone/acetic acid/5 % ammonia/water 4.5:1.5:1:1:2
Protocol: Direct bioautography assays to choose the most suitable and efficient stationary phase were performed on the following TLC plates: TLC Silica gel 60 RP-18 F254S (Merck), HPTLC-Platten Nano-SIL 20 UV254 (Macherey–Nagel), HPTLC Nano-ADAMANT UV254 (Macherey–Nagel) and TLC Aluminium oxide 60 F254 (Merck). The plates were sealed separately and autoclaved at 121 °C for 15 min. Peptide samples were dissolved in the solution of methanol and distilled water (75:25). 4 μL of each sample (5 mg/mL) was applied on the TLC plate. Separation was performed using a mobile phase consisting of n-butanol, acetone, acetic acid, 5 % ammonia and distilled water (4.5:1.5:1:1:2 v/v/v/v/v). Moreover, samples without separation were also investigated. In this case 10 µL of each sample was applied directly on the TLC plate and dried. All processes were performed under sterile conditions in the laminar flow cabinet. Microbiological assays were conducted using fivefold dilution of overnight culture of bacteria and a 48-h culture of fungi. After evaporation of eluents, TLC plates were sterilized under UV for 15 min and dipped into previously prepared inoculums of microorganisms for 20 s. Subsequently they were placed in a sterile Petri dish and incubated—bacteria at 37 °C for 5 h and fungi at 27 °C for 7 h. To visualize the growth inhibition zones, the plates were sprayed with 4 mg/mL (0.1 % Triton X-100) of a cell viability reagent, resazurin salt solution (Sigma-Aldrich).
To determine the usefulness of the TLC layer material, preliminary separation experiments were carried out. […] RP-18 layer’s stability was affected by TLC-bioautography procedures, resulting in material disruption. On the other hand, aluminum oxide layer was stable enough, however it gave low quality separation. Therefore, Nano-Sil and Nano-ADAMANT layers were chosen as the most suitable for TLC-DB of synthetic antimicrobial peptides. Mobile phase consisting of n-butanol, acetone, acetic acid, 5 % ammonia and distilled water (4.5:1.5:1:1:2 v/v/v/v/v) provided the best separation of tested compounds. Moreover, the influence of TFA content among crude peptides was also investigated. In this case all tested compounds were lyophilized from 0.1 mM HCl for three times before application on TLC plate in order to exchange the TFA to chloride counter ion. Nevertheless, the obtained results were the same. Assays with (Fig. 1) and without separation (Fig. 2) were performed simultaneously. Growing microorganisms that adhered to the surface of the TLC plate reduced the dye to pink resorufin. […] The Rf values of non-viable cell area were the same for purified compounds.

[2] = test system: Klebsiella pneumoniae ATCC 200603
Protocol: (§1) Minimum inhibitory concentration (MIC) was determined by broth microdilution method on 96-well polypropylene plates, according to Clinical and Laboratory Standards Institute (CLSI) recommendations. All tests were conducted in triplicate and involved six reference strains of the following bacteria: Bacillus subtilis ATCC 6633, Escherichia coli ATCC 25922, Klebsiella pneumoniae ATCC 200603, Pseudomonas aeruginosa ATCC 9027, Staphylococcus aureus ATCC 25923, Staphylococcus epidermidis ATCC 14490 and two reference strains of fungi: Candida albicans ATCC 10231 and Candida tropicalis PCM 2681. Concentrations of applied peptides ranged from 512 to 1 µg/mL. Two microbiological media were used: Mueller–Hinton Broth for bacteria and Sabouraud Dextrose Broth for fungi. Incubation took 18 h at 37 °C and 48 h at 27 °C respectively. MIC was taken as the lowest concentration of a peptide where the visible growth of microbes was inhibited.

[3] = test system: Bacillus subtilis ATCC 6633
Protocol: as §1

[4] = test system: Candida albicans ATCC 10231
Protocol: as §1

[5] = test system: Staphylococcus aureus ATCC 25923
Protocol: as §1

[6] = test system: Escherichia coli ATCC 25922
Protocol: as §1

[7] = test system: Staphylococcus epidermidis ATCC 14490
Protocol: as §1

[8] = test system: Candida tropicalis PCM 2681
Protocol: as §1

[9] = test system: Pseudomonas aeruginosa ATCC 9027
Protocol: as §1

[10] = test system: all the tested species of bacteria and fungi; experiment: Broth microdilution, summary over all strains; details: summary of Tables 1, 2
Protocol: as §1

[11] = broth microdilution, 96-well polypropylene plates, Mueller-Hinton Broth, 18 h at 37 °C, peptide 512 to 1 µg/mL, triplicate, visible growth
[12] = broth microdilution, 96-well polypropylene plates, Sabouraud Dextrose Broth, 48 h at 27 °C, peptide 512 to 1 µg/mL, triplicate, visible growth

Compound	TLC-DB without separation: appearance of spot after resazurin [1]	MIC against K. pneumoniae ATCC 200603 ([2]; ATCC 200603, 18 h)	MIC against B. subtilis ATCC 6633 ([3]; ATCC 6633, 18 h)	MIC against C. albicans ATCC 10231 ([4]; ATCC 10231, 48 h)	MIC against S. aureus ATCC 25923 ([5]; ATCC 25923, 18 h)	MIC against E. coli ATCC 25922 ([6]; ATCC 25922, 18 h)	MIC against S. epidermidis ATCC 14490 ([7]; ATCC 14490, 18 h)	MIC against C. tropicalis PCM 2681 ([8]; PCM 2681, 48 h)	MIC against P. aeruginosa ATCC 9027 ([9]; ATCC 9027, 18 h)	antimicrobial activity among all the tested species of bacteria and fungi [10]	TLC-DB with separation: zones after resazurin [1]	MIC against K. pneumoniae ATCC 200603 [2, 11]	MIC against B. subtilis ATCC 6633 [3, 11]	MIC against C. albicans ATCC 10231 [4, 12]	MIC against S. aureus ATCC 25923 [5, 11]	MIC against E. coli ATCC 25922 [6, 11]	MIC against S. epidermidis ATCC 14490 [7, 11]	MIC against C. tropicalis PCM 2681 [8, 12]	MIC against P. aeruginosa ATCC 9027 [9, 11]
CCCCCCCCCCCCCCCC(=O)N[C@@H](CCCCN)C(=O)NCC(=O)N[C@@H](CCCCN)C(N)=O [Pal-KGK-NH2] (Palmitoyl-Lys-Gly-Lys-NH2)	did not reduce resazurin	16 µg/mL (≈ 28.1 µM)	2 µg/mL (≈ 3.52 µM)	64 µg/mL (≈ 113 µM)	16 µg/mL (≈ 28.1 µM)	8 µg/mL (≈ 14.1 µM)	4 µg/mL (≈ 7.03 µM)	>512 µg/mL	64 µg/mL (≈ 113 µM)	–	–	–	–	–	–	–	–	–	–
CCCCCCCCCCCCCC(=O)N[C@@H](CCCCN)C(=O)NCC(=O)N[C@@H](CCCCN)C(N)=O [Mir-KGK-NH2] (Myristoyl-Lys-Gly-Lys-NH2)	did not reduce resazurin	128 µg/mL (≈ 237 µM)	2 µg/mL (≈ 3.7 µM)	128 µg/mL (≈ 237 µM)	16 µg/mL (≈ 29.6 µM)	64 µg/mL (≈ 118 µM)	4 µg/mL (≈ 7.4 µM)	256 µg/mL (≈ 473 µM)	>512 µg/mL	–	–	–	–	–	–	–	–	–	–
CCCCCCCCCCCCCCCC(=O)N[C@@H](CCCCNC(=O)C(F)(F)F)C(=O)N[C@@H](CCCCNC(=O)C(F)(F)F)C(N)=O [Pal-K(TFA)K(TFA)-NH2]	–	>512 µg/mL	>512 µg/mL	>512 µg/mL	>512 µg/mL	>512 µg/mL	>512 µg/mL	>512 µg/mL	>512 µg/mL	no antimicrobial activity	–	–	–	–	–	–	–	–	–
CCCCCCCCCCCC(=O)N[C@@H](CSSC[C@H](NC(=O)CCCCCCCCCCC)C(=O)N[C@@H](CCCCN)C(=O)N[C@@H](CCCCN)C(N)=O)C(=O)N[C@@H](CCCCN)C(=O)N[C@@H](CCCCN)C(N)=O [Laur-CKK-NH2 dimer] (I: Lauroyl-Cys-Lys-Lys-NH2 / II: Lauroyl-Cys-Lys-Lys-NH2; disulfide I:1-II:1)	did not reduce resazurin	8 µg/mL (≈ 7.17 µM)	2 µg/mL (≈ 1.79 µM)	512 µg/mL (≈ 459 µM)	8 µg/mL (≈ 7.17 µM)	8 µg/mL (≈ 7.17 µM)	2 µg/mL (≈ 1.79 µM)	>512 µg/mL	512 µg/mL (≈ 459 µM)	–	two blue spots; also recorded: two inhibition zones	–	–	–	–	–	–	–	–
CC[C@H](C)[C@H](N)C(=O)N[C@@H](CS)C(=O)N[C@@H](Cc1c[nH]cn1)C(=O)N[C@@H](Cc1c[nH]cn1)C(=O)N[C@@H](CS)C(=O)N[C@H](C(=O)O)[C@@H](C)CC [ICHHCI-OH] (H-ICHHCI-OH; N-terminus assumed)	soft white inhibition zone	–	–	–	–	–	–	–	–	no antimicrobial activity	white reduction zone; also recorded: white inhibition zone	>512 µg/mL	>512 µg/mL	>512 µg/mL	>512 µg/mL	>512 µg/mL	>512 µg/mL	>512 µg/mL	>512 µg/mL
CCCCCCCCCCCCCCCC(=O)N[C@@H](CCCCN)C(=O)N[C@@H](CCCCN)C(N)=O [Pal-KK-NH2]	did not reduce resazurin	16 µg/mL (≈ 31.3 µM)	2 µg/mL (≈ 3.91 µM)	128 µg/mL (≈ 250 µM)	8 µg/mL (≈ 15.6 µM)	8 µg/mL (≈ 15.6 µM)	4 µg/mL (≈ 7.82 µM)	128 µg/mL (≈ 250 µM)	128 µg/mL (≈ 250 µM)	–	–	–	–	–	–	–	–	–	–
KWKLFKKIGAVLKVL-NH2 [CAMEL]	–	–	–	–	–	–	–	–	–	–	–	2 µg/mL	2 µg/mL	128 µg/mL	4 µg/mL	2 µg/mL	1 µg/mL	256 µg/mL	256 µg/mL
QQRFEWEFEQQ-NH2 [p11]	–	–	–	–	–	–	–	–	–	–	–	>512 µg/mL	>512 µg/mL	>512 µg/mL	>512 µg/mL	>512 µg/mL	>512 µg/mL	>512 µg/mL	>512 µg/mL
GLFDVIKKVASVIGGL-NH2 [Citropin 1.1]	–	128 µg/mL	4 µg/mL	128 µg/mL	16 µg/mL	32 µg/mL	8 µg/mL	128 µg/mL	256 µg/mL	–	–	–	–	–	–	–	–	–	–
